The record followed here is patent publication US20250263416A1, “SPPL2a INHIBITORS” (Incyte Corporation, priority 2024, published 2025).

Entries after “also recorded” stand apart in the source; their conditions may differ.

Data set [1] is described as follows: In vivo epimerization and PK, statements covering all three preclinical models. On the set-up: species or system Sprague Dawley rats, beagle dogs, cynomolgus monkeys. On the procedure: These factors may lead to accumulation and potenial toxicity. The effect on epimerization by substitution at the chiral carbon was tested by comparing Example A, Example 1, and Example 29 in the following preclinical in vivo pharmacokinetic models: Sprague Dawley rats, beagle dogs, and cynomolgus monkeys.
Two groups of male Sprague Dawley rats (n=3 each) received either a single 10 mg/kg PO dose of Example A or Example 1 in a vehicle consisting of 0.5% methylcellulose in water. Blood samples were collected at 0.25, 0.5, 1, 2, 4, and 6 hours postdose.
Male Sprague Dawley rats (n=3 each) received a single 3 mg/kg PO dose of Example 29 in a vehicle consisting of 5% dimethylacetamide (DMAC) in 50 mM citrate buffer w/0.5% methylcellulose. Blood samples were collected at predose, 0.25, 0.5, 1, 2, 4, 6, 8, 12, and 24 hours postdose.
Three groups of male cynomolgus monkeys (n=2 each) received either a single 3 mg/kg PO dose of Example A, Example 1, or Example 29 in a vehicle consisting of 5% dimethylacetamide (DMAC) in 50 mM citrate buffer w/0.5% methylcellulose. Blood samples were collected at predose, 0.25, 0.5, 1, 2, 3, 4, 6, 8, 12, and 24 hours postdose.
Three groups of male beagle dogs (n=2 each) received either a single 3 mg/kg PO dose of Example A, Example 1, or Example 29 in a vehicle consisting of 5% dimethylacetamide (DMAC) in 50 mM citrate buffer w/0.5% methylcellulose. Blood samples were collected at predose, 0.25, 0.5, 1, 2, 3, 4, 6, 8, 12, 24 and 48 hours postdose.
All blood samples were collected using EDTA as the anticoagulant and centrifuged to obtain plasma. Plasma concentrations of Example A, Example 1, and their respective diastereomers were determined under non-GLP conditions using standard reverse phase LC-MS/MS bioanalytical methods. The individual plasma concentration-time data was used to determine the area under the curve (AUC) values using GraphPad Prism (v9.3.1).

Data set [2] relates to Collagen-Induced Arthritis (CIA) mouse model. The data set is described as follows: Collagen-induced arthritis (CIA) mouse model. In kind it is in vivo, DBA-1 mice. The settings on record: 50 mg/kg dose, compared to the vehicle. An excerpt:
Female DBA-1 mice (8-9 weeks old) were used in the CIA mouse model. This model is widely used to evaluate efficacy of immunomodulatory drugs on autoimmune diseases, such as arthritis. DBA/1 mice develop collagen-induced arthritis (CIA) after immunization with bovine type II collagen emulsified in complete Freund's adjuvant (CFA), followed by a booster dose 21 days later. Both the immunizations were given subcutaneously, approximately 25 mm from the base of the tail on opposite sides. Immunizations were performed under a short duration isoflurane anesthesia. Mice were evaluated for the disease progression up to 45 days. […] Statistical significance was determined using Two-way ANOVA with multiple comparison tests to compare all groups to the vehicle.

Another data set has as its target T1, human SPPL2a (Homo sapiens, UniProt Q8TCT8).
T1 construct: expressed in transfected cells; host or cells: U2OS (SPPL2a reporter cell line)
T1 sequence (Q8TCT8 26-520): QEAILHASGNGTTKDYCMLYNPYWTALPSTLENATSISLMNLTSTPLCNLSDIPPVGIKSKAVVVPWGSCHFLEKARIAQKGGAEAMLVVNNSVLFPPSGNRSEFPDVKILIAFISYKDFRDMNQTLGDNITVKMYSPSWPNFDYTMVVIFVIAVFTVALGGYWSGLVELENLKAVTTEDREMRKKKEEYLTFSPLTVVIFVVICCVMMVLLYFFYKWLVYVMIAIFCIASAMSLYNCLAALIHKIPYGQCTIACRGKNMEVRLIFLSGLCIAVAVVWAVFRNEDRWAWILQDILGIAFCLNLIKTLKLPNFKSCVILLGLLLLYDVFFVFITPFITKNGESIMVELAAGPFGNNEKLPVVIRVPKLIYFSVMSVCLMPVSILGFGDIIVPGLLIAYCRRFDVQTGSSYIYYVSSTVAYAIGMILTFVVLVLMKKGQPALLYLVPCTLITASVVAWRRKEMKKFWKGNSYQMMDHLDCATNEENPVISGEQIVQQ
The data set is described as follows: Western blot assay of TNFα-GFP cleavage in U2OS cells expressing human SPPL2a. Type of data set: cell-based. As to conditions: SPPL2a-U2OS reporter cells, 24 h. On the procedure:
To confirm the cleavage of TNF-α in the U2OS cells that express human SPPL2a, a western blot assay was performed. The same cell line used for the imaging assays were used; these cells express human SPPL2a constitutively and an eGFP-labelled TNFα (aa 1-76) NTF substrate under a doxycycline promotor. In the presence of SPPL2a activity, TNFα-GFP is cleaved at the NTF, resulting in a single 54-56 kDa band (lower MW). If SPPL2a activity is inhibited, TNFα GFP processing is abrogated resulting in a higher molecular weight band (60-62 kDa; complete inhibition) and or both 54-56 kDa and 60-62 kDa bands (incomplete inhibition, smeared appearance) on the blot. Both Example 1 and Example A were added at indicated concentrations, and cells were incubated for 24 h with the inhibitors. Total cell lysated were prepared in ice cold-1X RIPA buffer containing protease inhibitor cocktail (AKR-190, Cell BioLabs). Lysates were collected and quantified for the total protein on NanoDrop using BCA kit (23227, Thermo Scientific). […] To detect cleaved and un-cleaved TNFα-GFP fragments, anti-GFP antibody (AF4240, R&D Biosystems) was used as a primary antibody and detected using anti-goat detection module (DM-006, ProteinSimple) according to the manufacturer's protocol. Data was analyzed using ProteinSimple compass software.
(In general: A western blot detects proteins with antibodies after separation by electrophoresis.)

Data set [3] relates to experimental autoimmune encephalomyelitis (EAE) mouse model. As to the kind of experiment: Experimental autoimmune encephalomyelitis (EAE) mouse model. Type of data set: in vivo, mice. As to conditions: for disease score (EAE severity score): compared to vehicle. On the procedure: The EAE model was used to evaluate the potential of SPPL2a inhibition in an in vivo mouse model of autoimmune disease. In this study, EAE was induced in female mice, aged 7-9 weeks, using an EAE induction kit (EK-2160, Hooke Labs) containing human recombinant MOG 1 125 antigen emulsified in CFA. EAE severity score was measured on a scale of 0-6 as per the IACUC approved protocol for 20 days. Mice were treated orally with the SPPL2a inhibitor Example A at 15 mg/kg and 30 mg/kg twice daily (first dose given on the same day prior to immunization). Animals were euthanized and tissues, plasma, and serum were collected for further analysis.
Anti-mouse MOG antibodies were measured in the serum of mice using quantitative ELISA kit (AS-55156, AnaSpec). […] All data is presented as mean+SEM. For comparison of more than two groups, ANOVA was used. All statistical analysis was performed using GraphPad Prism™ 10 or higher.

As to `CNC(=O)c1nc(C)c(C(=O)NC[C@@H](C)C(=O)N[C@@H]2C(=O)N3CCCN3Cc3ccccc32)s1` [Example A, N^2,4-dimethyl-N^5—((R)-2-methyl-3-oxo-3-(((S)-11-oxo-2,3,10,11-tetrahydro-1H,5H-benzo[d]pyrazolo[1,2-a][1,2]diazepin-10-yl)amino)propyl)thiazole-2,5-dicarboxamide], the “in vivo epimerization at the chiral carbon in the 7-membered ring” value in data set [1] (rat, monkey and dog models, PO) is given as “exhibits epimerization in vivo; also recorded: observed in all three models”. Further, in data set [1] (rats, monkeys, dogs), the “exposures and PK (other than epimerization) across species” value is recorded as “consistent”. Besides, in data set [2], the “clinical signs of CIA” value is on record as “significantly reduced”. Further, the “TNFα-GFP cleavage inhibition (SPPL2a activity inhibition)” value at human SPPL2a was “SPPL2a activity inhibition; also recorded: Comparable and significant TNFα-GFP cleavage inhibition”. Also, in data set [3] (15 mg/kg), the IgG2a level result is reported as “Trends to lower Ig titers”, the IgG2b level result is “Trends to lower Ig titers” and the IgM level entry is on record as “Trends to lower Ig titers”. The “disease score (EAE severity score)” value in data set [3] (15 mg/kg orally twice daily) is listed as “significant reduction”. Besides, in data set [3] (30 mg/kg), the IgA entry was “lower total IgG1 and IgA trend”; the IgG2a titer entry is on record as “Significant reduction”; the IgG2b titer entry is “Significant reduction”; the IgG3 titer entry is “Significant reduction”. Also, in data set [3] (30 mg/kg), the IgM titer result was “Significant reduction”; the “total IgG1” value is “lower total IgG1 and IgA trend”. In addition, the “disease score (EAE severity score)” value in data set [3] (30 mg/kg orally twice daily) was “significant reduction”. In addition, in data set [3] (EAE induced mice), the “total Ig levels” value was “significantly inhibited”. Also, the “clinical signs of EAE” value in data set [3] (oral, twice daily, starting at day 13 of the treatment) was “significantly reduced”. The “anti-MOG antibodies in serum” value in data set [3] (quantitative ELISA) was “significant reduction”.
